# Laboratory results taken from ChEMBL document CHEMBL3045902, “Actions of imidacloprid, clothianidin and related neonicotinoids on nicotinic acetylcholine receptors of American cockroach neurons and their relationships with insecticidal potency” (J Pestic Sci, 2006).
# The source made the active and inactive calls. No cut-off for these calls is given here.
# Experiments:
# [1] = biological target: T1, Nicotinic acetylcholine receptor alpha8 subunit (Periplaneta americana) (UniProt H6TY12); test: Agonist activity at Periplaneta americana (American cockroach) nAChR in terminal abdominal ganglion assessed as assessed as inward current by tight-seal whole cell patch clamp method relative to 100 uM ACh; assay type: tissue-based
# T1 sequence (whole entry): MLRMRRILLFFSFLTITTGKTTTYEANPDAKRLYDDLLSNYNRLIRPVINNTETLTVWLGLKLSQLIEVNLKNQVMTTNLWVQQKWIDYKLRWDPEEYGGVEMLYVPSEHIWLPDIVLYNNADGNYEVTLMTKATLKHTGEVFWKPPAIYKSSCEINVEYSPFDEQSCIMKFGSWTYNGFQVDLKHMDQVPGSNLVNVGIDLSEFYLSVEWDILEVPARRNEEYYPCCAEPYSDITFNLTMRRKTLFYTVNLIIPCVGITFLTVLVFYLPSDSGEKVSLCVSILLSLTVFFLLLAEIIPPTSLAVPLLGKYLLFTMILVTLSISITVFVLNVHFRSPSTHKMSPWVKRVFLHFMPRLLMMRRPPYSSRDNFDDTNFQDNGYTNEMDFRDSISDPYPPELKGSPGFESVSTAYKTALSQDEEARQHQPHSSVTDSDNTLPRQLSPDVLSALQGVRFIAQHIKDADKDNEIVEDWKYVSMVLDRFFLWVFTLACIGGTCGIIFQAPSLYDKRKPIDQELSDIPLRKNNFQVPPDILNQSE
# Periplaneta americana = test: Insecticidal activity against Periplaneta americana (American cockroach) assessed as killing measured per insect at 25 to 28 degC for 24 hr in presence of piperonyl butoxide; assay type: functional
# [2] = Hydrophobicity, log K of the compound by HPLC; assay type: physicochemical
# [3] = biological target: T2, Nicotinic acetylcholine receptor alpha8 subunit (Periplaneta americana, UniProt H6TY12); test: Agonist activity at Periplaneta americana (American cockroach) nAChR in terminal abdominal ganglion assessed as assessed as inward current by tight-seal whole cell patch clamp method; assay type: tissue-based
# T2 sequence (H6TY12 whole entry): T1 sequence (whole entry)
Compound,Imax [1],pMLD (Periplaneta americana),log K [2],EC50 [3]
O=[N+]([O-])/N=C1\NCCN1Cc1ccc(Cl)nc1 [IMIDACLOPRID],0.11,10.4,–,–
O=[N+]([O-])/C=C1\NCCN1Cc1ccc(Cl)nc1,0.24,10.1,0.05,72.4 nM
O=[N+]([O-])/C=C1\NCCN1Cc1cnc(Cl)s1,0.3,10.2,0.03,15.8 nM
C/N=C(\NCc1ccc(Cl)nc1)N[N+](=O)[O-],0.31,9.52,0.11,1860 nM
O=[N+]([O-])NC1=NCCN1Cc1ccc(Cl)nc1 [IMIDACLOPRID],–,–,0.23,1320 nM
O=[N+]([O-])/N=C1\NCCN1Cc1cnc(Cl)s1 [IMIDACLOTHIZ],0.3,9.07,0.28,1580 nM
CN/C(=C\[N+](=O)[O-])NCc1cnc(Cl)s1,0.47,10.2,0.14,19.5 nM
CN/C(=C\[N+](=O)[O-])NCc1ccc(Cl)nc1,0.44,9.22,0.16,38.9 nM
CC(=O)OCC[N+](C)(C)C [ACETYLCHOLINE],–,inactive,–,11500 nM
CN/C(=N\[N+](=O)[O-])NCc1cnc(Cl)s1 [CLOTHIANIDINE],0.68,10.2,0.17,1580 nM
